≈ marks a conversion by molar mass, not a printed value.
Legend:
[1] = Absorption coefficient at a wavelength of 365 nm; format: physicochemical; settings: at 365 nm
Source text: The absorption coefficient can be determined by the following formula.
α365: absorption coefficient at a wavelength of 365 nm [mL/(g·cm)]
A365: absorbance at a wavelength of 365 nm
c: solution concentration [g/mL]
d: optical path length (of quartz cell) [cm]
In addition, when calculating the absorption coefficient, an absorbance converted from the measurement result of the transmittance may also be used.
T365: light transmittance at a wavelength of 365 nm [%]

Aqueous solubility = format: physicochemical
Protocol: From such a viewpoint, the metal corrosion inhibitor preferably has an aqueous solubility at 25° C. of 20 g/L or more, more preferably 50 g/L or more, particularly preferably 100 g/L or more.

| solubility (Aqueous solubility; water, 25 °C) | SMILES | absorption coefficient [1] | aqueous solubility (Aqueous solubility) |
| --- | --- | --- | --- |
|  | c1c[nH]nn1 [Example D-1, 1,2,3-triazole] | 0.3 mL/g/cm | > 1,000 g/L |
|  | c1nc[nH]n1 [Example D-2, 1,2,4-triazole] | 0.3 mL/g/cm | > 1,000 g/L |
|  | c1ccc2[nH]nnc2c1 [Example D-3, 1,2,3-benzotriazole] | 0.8 mL/g/cm | 20 g/L (≈ 168 mM) |
| 20 mg/mL (≈ 133 mM) | Sc1nnc(S)s1 [Example D-4, 2,5-dimercapto-1,3,4-thiadiazole, reference compound] | 90 mL/g/cm |  |
|  | S=c1[nH]c2ccccc2s1 [Example D-5, mercaptobenzothiazole, reference compound] | 65 mL/g/cm | 0.3 g/L (≈ 1.79 mM) |
